Target: T1, recombinant human mPGES-1 (Homo sapiens, UniProt O14684)
T1 construct: made in house; host or cells: Rosetta E. coli (microsomal/membrane fraction)
T1 sequence (O14684 1-152): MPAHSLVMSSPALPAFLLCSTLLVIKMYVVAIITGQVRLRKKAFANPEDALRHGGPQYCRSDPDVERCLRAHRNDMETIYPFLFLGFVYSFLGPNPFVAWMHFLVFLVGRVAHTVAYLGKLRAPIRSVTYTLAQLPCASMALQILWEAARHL
Experiment: mPGES-1 inhibition, HTRF detection of PGE2 (Biological Test)
Assay type: biochemical
Method: Microsomes from Rosetta E. coli bacteria expressing recombinant human mPGES-1 is dissolved in 0.1 M KPi pH 7.4 buffer containing 2.5 mM GSH. 50 μl of the enzyme is subsequently dispensed in a 384-well plate. 0.5 μl of the inhibitor dissolved in DMSO at is thereafter added to each well and incubated for 25 minutes at room temperature.
Subsequently, 2 μl of PGH2 dissolved in an appropriate solvent is added to each well and after one minute the acidified stop solution containing FeCl2 is added. 4 μl of the total volume is transferred to a separate plate and diluted 750-fold in two separate steps before HTRF detection of PGE2.
The HTRf detection is performed by the use of a commercially available kit from CisBio essentially according to the manufacturer's protocol. Briefly, 10 μl of the diluted sample is transferred to a white 384-well plate. 5 μl of d2 and 5 μl Eu3+-Cryptate labeled anti-PGE2 is added to each well containing samples by the use of a Multidrop. The plate is covered with a plastic self-adhesive film, centrifuged at 1200 rpm for 1 minute and subsequently stored at +4° C. over night.
After over night incubation the fluorescence is measured by the use of an appropriate microplate reader. The fluorescence of europium cryptate, and d2 are measured using the following excitation and emission wavelength, europium cryptate: λmax^ex=307 nm, λmax^em=620 nm and d2: λmax^ex=620 nm, λmax^em=665 nm), respectively. The extent of the specific FRET is measured as a ratio of the emission intensity at 665 nm vs. that at 620 nm. A standard curve using synthetic PGE2 is used to quantify the amount of PGE2 in unknown samples.

| inhibition at 10 µM [%] | Structure (SMILES) |
| --- | --- |
| 100 | CCOc1cc2c(cc1C(=O)NC1CCC(C)(C)CC1)nc(Nc1c(Cl)cncc1Cl)n2C [Example 670, 2-(3,5-Dichloropyridin-4-ylamino)-N-(4,4-dimethyl-cyclohexyl)-6-ethoxy-1-methyl-1H-benzimidazole-5-carboxamide] |
| 100 | COCCOc1cc2c(cc1C(=O)NC1CCC(C)(C)CC1)nc(Nc1c(Cl)cncc1Cl)n2C [Example 671, 2-(3,5-Dichloropyridin-4-ylamino)-N-(4,4-dimethyl-cyclohexyl)-6-(2-methoxy-ethoxy)-1-methyl-1H-benzimidazole-5-carboxamide] |
| 100 | CN(C)c1cc2c(cc1C(=O)NC1CCC(C)(C)CC1)nc(Nc1c(Cl)cncc1Cl)n2C [Example 672, 2-(3,5-Dichloropyridin-4-ylamino)-N-(4,4-dimethyl-cyclohexyl)-6-dimethylamino-1-methyl-1H-benzimidazole-5-carboxamide] |
| 100 | CC1(C)CCC(NC(=O)c2cc3nc(Nc4c(Cl)cncc4Cl)[nH]c3cc2F)CC1 [Example 673, 2-(3,5-Dichloro-pyridin-4-yl-amino)-6-fluoro-N-(4,4-dimethyl-cyclohex-1-yl)-1H-benzimidazole-5-carboxamide] |
| 100 | Cn1c(Nc2c(Cl)cncc2Cl)nc2cc(C(=O)NC3CCC(C)(C)CC3)c(F)cc21 [Example 674, 2-(3,5-Dichloropyridin-4-ylamino)-N-(4,4-dimethyl-cyclohex-1-yl)-6-fluoro-1-methyl-1H-benzimidazole-5-carboxamide] |
| 100 | O=C(N[C@H]1CC[C@H](C(F)(F)F)CC1)c1cc2nc(Nc3c(Cl)cncc3Cl)[nH]c2cc1OCC(F)(F)F [Example 675, 2-(3,5-Dichloro-pyridin-4-yl-amino)-6-(2,2,2-trifluoro-ethoxy)-N-(trans-4-trifluoromethyl-cyclohex-1-yl)-1H-benzimidazole-5-carboxamide] |
| 100 | O=C(Nc1ccc(Br)cc1)c1cc2nc(Nc3c(Cl)cncc3Cl)[nH]c2cc1OCC(F)(F)F [Example 676, 2-(3,5-Dichloropyridin-4-ylamino)-N-(4-bromophenyl)-6-(2,2,2-trifluoroethoxy)-1H-benzimidazole-5-carboxamide] |
| 100 | O=C(N[C@H]1CC[C@H](C(F)(F)F)CC1)c1cc2nc(Nc3c(Cl)cncc3Cl)[nH]c2cc1OCCF [Example 677, 2-(3,5-Dichloropyridin-4-ylamino)-N-(trans-4-trifluoromethyl-cyclohex-1-yl)-6-(2-fluoroethoxy)-1H-benzimidazole-5-carboxamide] |
| 100 | O=C(Nc1ccc(Br)cc1)c1cc2nc(Nc3c(Cl)cncc3Cl)[nH]c2cc1OCCF [Example 678, 2-(3,5-Dichloropyridin-4-ylamino)-N-(4-bromophenyl)-6-(2-fluoroethoxy)-1H-benzimidazole-5-carboxamide] |
| 100 | COc1cc2c(cc1C(=O)Nc1ccc(Br)cc1)nc(Nc1c(Cl)cncc1Cl)n2C [Example 679, 2-(3,5-Dichloro-pyridin-4-ylamino)-6-methoxy-N-(4-bromophenyl)-1-methyl-1H-benzimidazole-5-carboxamide] |
| 100 | COc1cc2[nH]c(Nc3c(Cl)cncc3Cl)nc2cc1C(=O)Nc1cc(C(F)(F)F)ccn1 [Example 680, 2-(3,5-Dichloropyridin-4-ylamino)-N-(4-trifluoromethyl-pyridin-2-yl)-6-methoxy-1H-benzimidazole-5-carboxamide] |
| 100 | COc1cc2[nH]c(Nc3c(Cl)cncc3Cl)nc2cc1C(=O)Nc1cc(C(F)(F)F)cc(C)n1 [Example 681, 2-(3,5-Dichloro-pyridin-4-ylamino)-6-methoxy-N-(6-methyl-4-trifluoromethyl-pyridin-2-yl)-1H-benzimidazole-5-carboxamide] |
| 99 | COc1cc2[nH]c(Nc3c(Cl)cncc3Cl)nc2cc1C(=O)Nc1ccc(Br)cn1 [Example 682, 2-(3,5-Dichloro-pyridin-4-ylamino)-N-(5-bromo-pyridin-2-yl)-6-methoxy-1H-benzimidazole-5-carboxamide] |
| 98 | COc1cc2[nH]c(Nc3c(Cl)cncc3Cl)nc2cc1C(=O)Nc1ccc(C2CC2)cn1 [Example 684, 2-(3,5-Dichloro-pyridin-4-ylamino)-N-(5-cyclopropyl-pyridin-2-yl)-6-methoxy-1H-benzimidazole-5-carboxamide] |
| 98 | COCCOc1cc2[nH]c(Nc3c(Cl)cncc3Cl)nc2cc1C(=O)Nc1ccc(Br)cc1 [Example 685, 2-(3,5-Dichloro-pyridin-4-ylamino)-6-(2-methoxy-ethoxy)-N-(4-bromo-phenyl)-1H-benzimidazole-5-carboxamide] |
| 99 | COCCOc1cc2[nH]c(Nc3c(Cl)cncc3Cl)nc2cc1C(=O)NCc1ncccc1C(F)(F)F [Example 686, 2-(3,5-Dichloro-pyridin-4-ylamino)-N-((3-trifluoromethyl-pyridin-2-yl)-methyl)-6-(2-methoxy-ethoxy)-1H-benzimidazole-5-carboxamide] |
| 96 | CN(C)CCOc1cc2[nH]c(Nc3c(Cl)cncc3Cl)nc2cc1C(=O)Nc1ccc(Br)cc1 [Example 687, 2-(3,5-Dichloro-pyridin-4-ylamino)-6-(2-dimethylamino-ethoxy)-N-(4-bromo-phenyl)-1H-benzimidazole-5-carboxamide] |
| 100 | COc1cc2[nH]c(Nc3c(Cl)cncc3Cl)nc2cc1C(=O)NCc1ncccc1C1CCC1 [Example 688, 2-(3,5-Dichloro-pyridin-4-ylamino)-N-((3-cyclobutyl-pyridin-2-yl)-methyl)-6-methoxy-1H-benzimidazole-5-carboxamide] |
| 100 | CCOc1cc2[nH]c(Nc3c(Cl)cncc3Cl)nc2cc1C(=O)NCc1ccccc1C(F)(F)F [Example 689, 2-(3,5-Dichloropyridin-4-ylamino)-N-((2-trifluoromethyl-phen-1-yl)-methyl)-6-ethoxy-1H-benzimidazole-5-carboxamide] |
| 100 | CCOc1cc2[nH]c(Nc3c(Cl)cncc3Cl)nc2cc1C(=O)N[C@H]1CC[C@H](C(F)(F)F)CC1 [Example 690, 2-(3,5-Dichloropyridin-4-ylamino)-N-(trans-4-trifluoromethyl-cyclohex-1-yl)-6-ethoxy-1H-benzimidazole-5-carboxamide] |
| 95 | COc1cc2[nH]c(Nc3c(Cl)cncc3Cl)nc2cc1C(=O)Nc1cc(C(F)(F)F)cc(N(C)C)n1 [Example 692, 2-(3,5-Dichloropyridin-4-ylamino)-N-(6-dimethylamino-4-trifluoromethyl-pyridin-2-yl)-6-methoxy-1H-benzimidazole-5-carboxamide] |
| 97 | CCOc1cc2[nH]c(Nc3c(Cl)cncc3Cl)nc2cc1C(=O)NCc1ncccc1Cl [Example 693, 2-(3,5-Dichloropyridin-4-ylamino)-N-((3-chloro-pyridin-2-yl)-methyl)-6-ethoxy-1H-benzimidazole-5-carboxamide] |
| 98 | CCOc1cc2[nH]c(Nc3c(Cl)cncc3Cl)nc2cc1C(=O)Nc1cc(C(F)(F)F)ccn1 [Example 694, 2-(3,5-Dichloropyridin-4-ylamino)-N-(4-trifluoromethyl-pyridin-2-yl)-6-ethoxy-1H-benzimidazole-6-carboxamide] |
| 94 | CCOc1cc2[nH]c(Nc3c(Cl)cncc3Cl)nc2cc1C(=O)Nc1ccc(Br)cc1 [Example 695, 2-(3,5-Dichloropyridin-4-ylamino)-N-(4-bromo-phenyl)-6-ethoxy-1H-benzimidazole-6-carboxamide] |
| 100 | COc1cc2[nH]c(Nc3c(Cl)cncc3Cl)nc2cc1C(=O)Nc1cccc(N(C)C)n1 [Example 696, 2-(3,5-Dichloropyridin-4-ylamino)-N-(6-dimethylamino-pyridin-2-yl)-6-methoxy-1H-benzimidazole-5-carboxamide] |
| 100 | CCOc1cc2[nH]c(Nc3c(Cl)cncc3Cl)nc2cc1C(=O)Nc1cc(C(F)(F)F)cc(N(C)C)n1 [Example 697] |
| 99 | CCOc1cc2[nH]c(Nc3c(Cl)cncc3Cl)nc2cc1C(=O)Nc1cccc(C(F)F)n1 [Example 698] |
| 100 | O=C(Nc1cc(C(F)F)c(F)cn1)c1cc2nc(Nc3c(Cl)cncc3Cl)[nH]c2cc1OCC(F)(F)F [Example 699] |

| Structure (SMILES) | inhibition at 10 µM [%] |
| --- | --- |
| CCOc1cc2[nH]c(Nc3c(Cl)cncc3Cl)nc2cc1C(=O)NCC(F)(F)C(F)(F)C(F)(F)C(F)(F)F [Example 691, 2-(3,5-Dichloropyridin-4-ylamino)-N-(2,2,3,3,4,4,5,5,5-nonafluoropentyl)-6-ethoxy-1H-benzimidazole-5-carboxamide] | 97 |
